Experimental findings from the supplement of paper PMC6965134 are described below.

A short description of the data set: TIMS collisional cross section (CCS, N2) of the lipid ion; higher = larger ion cross section. Conditions: ionization mode: positive, one isomer drawn.

SMILES strings stand for the structures. ± gives the standard deviation of the averaged measurements.

On to `CCCCC/C=C\C/C=C\CCCCCCCC(=O)O[C@H](CO)COP(=O)(O)OCCN` [LPE 18:2] (ion (formula + adduct): [C23H44NO7P+H] 1+), for which the “TIMS collisional cross section” value (sample type: plasma) is listed as 211.2 ± 0.85 Å². Turning to `CCCCC/C=C\C/C=C\CCCCCCCC(=O)OC[C@@H](O)COP(=O)(O)OCCN` [LPE 18:2] (ion (formula + adduct): [C23H44NO7P+H] 1+), the “TIMS collisional cross section” value worked out at 211.45 ± 1.1 Å² (sample type: Liver) and 214.1 Å² (sample type: plasma). Regarding `CCCCC/C=C\C/C=C\C/C=C\CCCCC(=O)OC[C@@H](O)COP(=O)(O)OCCN` [LPE 18:3] (ion (formula + adduct): [C23H42NO7P+H] 1+), the “TIMS collisional cross section” value (sample type: plasma) worked out at 208.3 Å². `CCCCCCCCCCCCCCCCCCCC(=O)OC[C@@H](O)COP(=O)(O)OCCN` [LPE 20:0] (ion (formula + adduct): [C25H52NO7P+H] 1+): under “sample type: HeLa”, the “TIMS collisional cross section” value is 229.2 Å². Take `CCCCCCCC/C=C\CCCCCCCCCC(=O)OC[C@@H](O)COP(=O)(O)OCCN` [LPE 20:1] (ion (formula + adduct): [C25H50NO7P+H] 1+): the “TIMS collisional cross section” value runs as follows: (sample type: Liver) 223.5 Å²; (sample type: plasma) 223.3 Å². Regarding `CCCCC/C=C\C/C=C\C/C=C\CCCCCCC(=O)OC[C@@H](O)COP(=O)(O)OCCN` [LPE 20:3] (ion (formula + adduct): [C25H46NO7P+H] 1+), the “TIMS collisional cross section” value came out at 216.8 Å² (sample type: HeLa), 217.2 Å² (sample type: Liver) and 217.3 Å² (sample type: plasma). Consider `CCCCC/C=C\C/C=C\C/C=C\C/C=C\CCCC(=O)O[C@H](CO)COP(=O)(O)OCCN` [LPE 20:4] (ion (formula + adduct): [C25H44NO7P+H] 1+), for which, under “sample type: plasma”, the “TIMS collisional cross section” value was found to be 214.45 ± 0.92 Å². As to `CC/C=C\C/C=C\C/C=C\C/C=C\C/C=C\CCCC(=O)OC[C@@H](O)COP(=O)(O)OCCN` [LPE 20:5] (ion (formula + adduct): [C25H42NO7P+H] 1+), the “TIMS collisional cross section” value (sample type: plasma) is reported as 210.7 Å². As for `CCCCCCCCCCCCCCCCCCCCCC(=O)OC[C@@H](O)COP(=O)(O)OCCN` [LPE 22:0] (ion (formula + adduct): [C27H56NO7P+H] 1+), the “TIMS collisional cross section” value (sample type: HeLa) is given as 236.4 Å². For the compound `CCCCC/C=C\C/C=C\C/C=C\C/C=C\CCCCCC(=O)O[C@H](CO)COP(=O)(O)OCCN` [LPE 22:4] (ion (formula + adduct): [C27H48NO7P+H] 1+), for the setting “sample type: Liver”, the “TIMS collisional cross section” value amounted to 223.9 Å². For `CCCCC/C=C\C/C=C\C/C=C\C/C=C\CCCCCC(=O)OC[C@@H](O)COP(=O)(O)OCCN` [LPE 22:4] (ion (formula + adduct): [C27H48NO7P+H] 1+), the “TIMS collisional cross section” value reads like this: (sample type: HeLa) 223.8 Å²; (sample type: plasma) 223.6 Å². With `CCCCC/C=C\C/C=C\C/C=C\C/C=C\C/C=C\CCC(=O)OC[C@@H](O)COP(=O)(O)OCCN` [LPE 22:5] (ion (formula + adduct): [C27H46NO7P+H] 1+), the “TIMS collisional cross section” value by setting is: (sample type: HeLa) 220.9 Å²; (sample type: Liver) 221 Å²; (sample type: plasma) 220.3 ± 1.4 Å². On to `CC/C=C\C/C=C\C/C=C\C/C=C\C/C=C\C/C=C\CCC(=O)O[C@H](CO)COP(=O)(O)OCCN` [LPE 22:6] (ion (formula + adduct): [C27H44NO7P+H] 1+), for which, under “sample type: plasma”, the “TIMS collisional cross section” value is reported as 217.7 Å². As to `CC/C=C\C/C=C\C/C=C\C/C=C\C/C=C\C/C=C\CCC(=O)OC[C@@H](O)COP(=O)(O)OCCN` [LPE 22:6] (ion (formula + adduct): [C27H44NO7P+H] 1+), the “TIMS collisional cross section” value (sample type: HeLa) came out at 218.95 ± 0.071 Å², the “TIMS collisional cross section” value (sample type: Liver) is recorded as 218 Å² and the “TIMS collisional cross section” value (sample type: plasma) came out at 218.3 ± 0.85 Å². For `CCCCC/C=C\C/C=C\CCCCCCCCCC(=O)OC[C@@H](O)COP(=O)(O)OC[C@@H](O)CO` [LPG 20:2] (ion (formula + adduct): [C26H49O9P+H] 1+), the “TIMS collisional cross section” value (sample type: Liver) was 230.1 Å².

Regarding `CCCCCCCCCCCCCCCCCC(=O)OC[C@@H](O)COP(=O)(O)O[C@H]1C(O)C(O)C(O)[C@@H](O)C1O` (stereo not given in full) [LPI 18:0] (ion (formula + adduct): [C27H53O12P+H] 1+), the “TIMS collisional cross section” value runs as follows: (sample type: HeLa) 248.8 Å²; (sample type: Liver) 249.1 Å²; (sample type: plasma) 248.8 Å². For the compound `CCCCC/C=C\C/C=C\CCCCCCCC(=O)OC[C@@H](O)COP(=O)(O)O[C@H]1C(O)C(O)C(O)[C@@H](O)C1O` (stereo not given in full) [LPI 18:2_0:0] (ion (formula + adduct): [C27H49O12P+H] 1+), the “TIMS collisional cross section” value (sample type: plasma) is on record as 243 Å².

With `CCCCCCCCCCCCCCCCCC(=O)OC[C@@H](O)COP(=O)(O)OC[C@H](N)C(=O)O` [LPS 18:0] (ion (formula + adduct): [C24H48NO9P+H] 1+), the “TIMS collisional cross section” value is listed as 229.2 Å² (sample type: HeLa) and 229.2 Å² (sample type: Liver). On to `CCCCC/C=C\C/C=C\C/C=C\C/C=C\CCCC(=O)OC[C@@H](O)COP(=O)(O)OC[C@H](N)C(=O)O` [LPS 20:4] (ion (formula + adduct): [C26H44NO9P+H] 1+), for which the “TIMS collisional cross section” value (sample type: Liver) is 221.9 Å². With `OC[C@]([H])(OC(CCC/C=C\C/C=C\C/C=C\C/C=C\CCCCC)=O)CO` [MG 0:0_20:4_0:0] (ion (formula + adduct): [C23H38O4+H] 1+), the “TIMS collisional cross section” value is, setting by setting: (sample type: Liver) 195.7 Å²; (sample type: plasma) 197.1 Å².

Regarding `CCCCC/C=C\C[C@H](O)/C=C/C=C\C/C=C\CCCC(=O)O[C@H](COC(=O)CCCCCCCCCCCCCCC)COP(=O)([O-])OCC[N+](C)(C)C` [Oxidized PC 16:0@_20:4] (ion (formula + adduct): [C44H80NO9P+H] 1+), where the note is “sample type: plasma”, the “TIMS collisional cross section” value is given as 289.9 ± 0.36 Å². On to `CCCCCCCCCCCCCCCC(=O)OC[C@H](COP(=O)([O-])OCC[N+](C)(C)C)OC(=O)CCCC=O` [Oxidized PC 16:0_5:0@] (ion (formula + adduct): [C29H56NO9P+H] 1+), for which the “TIMS collisional cross section” value (sample type: Liver) was determined as 245.3 Å² and the “TIMS collisional cross section” value (sample type: plasma) is on record as 245.55 ± 0.35 Å². With `CCCCCCCCCCCCCCCC(=O)OC[C@H](COP(=O)([O-])OCC[N+](C)(C)C)OC(=O)CCCCCCCC=O` [Oxidized PC 16:0_9:0@] (ion (formula + adduct): [C33H64NO9P+H] 1+), the “TIMS collisional cross section” value is recorded as 257.85 ± 1.6 Å² (sample type: HeLa) and 257 ± 0.14 Å² (sample type: plasma). `CCCCC/C=C\C[C@H](O)/C=C/C=C\C/C=C\CCCC(=O)O[C@H](COC(=O)CCCCCCCCCCCCCCC)COP(=O)([O-])OCC[N+](C)(C)C` [Oxidized PC 16:0_20:4@] (ion (formula + adduct): [C44H80NO9P+H] 1+): the “TIMS collisional cross section” value (sample type: Liver) stood at 290.3 Å². Turning to `CCCCC/C=C\C[C@H](O)/C=C/C=C\C/C=C\CCCC(=O)O[C@H](COC(=O)CCCCCCCCCCCCCCCCC)COP(=O)([O-])OCC[N+](C)(C)C` [Oxidized PC 18:0@_20:4] (ion (formula + adduct): [C46H84NO9P+H] 1+), the “TIMS collisional cross section” value (sample type: plasma) came to 297.15 ± 0.92 Å².
